Test results reported in ChEMBL document CHEMBL1152441, “Discovery of [18F]N-(2-(diethylamino)ethyl)-6-fluoronicotinamide: a melanoma positron emission tomography imaging radiotracer with high tumor to body contrast ratio and rapid renal clearance” (J Med Chem, 2009).

Experiments:
[1] = Biodistribution in eye of mouse B16F0 cells implanted C57BL/6J mouse assessed per gram of tissue at 0.4 to 5.5 MBq, iv after 0.25 hrs by gamma counter; assay type: ADME, organism-based; conditions: in vivo
[2] = Biodistribution in eye of mouse B16F0 cells implanted C57BL/6J mouse assessed per gram of tissue at 0.4 to 5.5 MBq, iv after 1 hr by gamma counter; assay type: ADME, organism-based; conditions: in vivo
Bone [3] = experiment: Biodistribution in bone of mouse B16F0 cells implanted C57BL/6J mouse assessed per gram of tissue at 0.4 to 5.5 MBq, iv after 3 hrs by gamma counter; assay type: ADME, organism-based, Bone element; conditions: in vivo
[4] = Biodistribution in tumor of mouse B16F0 cells implanted C57BL/6J mouse assessed per gram of tissue at 0.4 to 5.5 MBq, iv after 1 hr by gamma counter; assay type: ADME, organism-based, Neoplasm; conditions: in vivo
[5] = Biodistribution in eye of mouse B16F0 cells implanted C57BL/6J mouse assessed per gram of tissue at 0.4 to 5.5 MBq, iv after 3 hrs by gamma counter; assay type: ADME, organism-based; conditions: in vivo
Stomach [6] = experiment: Biodistribution in stomach of mouse B16F0 cells implanted C57BL/6J mouse assessed per gram of tissue at 0.4 to 5.5 MBq, iv after 1 hr by gamma counter; assay type: ADME, organism-based; conditions: in vivo
[7] = Biodistribution in tumor of mouse B16F0 cells implanted C57BL/6J mouse assessed per gram of tissue at 0.4 to 5.5 MBq, iv after 3 hrs by gamma counter; assay type: ADME, organism-based, Neoplasm; conditions: in vivo
Lung [8] = experiment: Biodistribution in lung of mouse B16F0 cells implanted C57BL/6J mouse assessed per gram of tissue at 0.4 to 5.5 MBq, iv after 6 hrs by gamma counter; assay type: ADME, organism-based; conditions: in vivo
Bone [9] = experiment: Biodistribution in bone of mouse B16F0 cells implanted C57BL/6J mouse assessed per gram of tissue at 0.4 to 5.5 MBq, iv after 1 hr by gamma counter; assay type: ADME, organism-based, Bone element; conditions: in vivo
Intestine [10] = experiment: Biodistribution in intestine of mouse B16F0 cells implanted C57BL/6J mouse assessed per gram of tissue at 0.4 to 5.5 MBq, iv after 1 hr by gamma counter; assay type: ADME, organism-based; conditions: in vivo
Thyroid gland [11] = experiment: Biodistribution in thyroid of mouse B16F0 cells implanted C57BL/6J mouse assessed per gram of tissue at 0.4 to 5.5 MBq, iv after 3 hrs by gamma counter; assay type: ADME, organism-based; conditions: in vivo
Thyroid gland [12] = experiment: Biodistribution in thyroid of mouse B16F0 cells implanted C57BL/6J mouse assessed per gram of tissue at 0.4 to 5.5 MBq, iv after 0.25 hrs by gamma counter; assay type: ADME, organism-based; conditions: in vivo
Stomach [13] = experiment: Biodistribution in stomach of mouse B16F0 cells implanted C57BL/6J mouse assessed per gram of tissue at 0.4 to 5.5 MBq, iv after 6 hrs by gamma counter; assay type: ADME, organism-based; conditions: in vivo
Stomach [14] = experiment: Biodistribution in stomach of mouse B16F0 cells implanted C57BL/6J mouse assessed per gram of tissue at 0.4 to 5.5 MBq, iv after 3 hrs by gamma counter; assay type: ADME, organism-based; conditions: in vivo
[15] = Biodistribution in tumor of mouse B16F0 cells implanted C57BL/6J mouse assessed per gram of tissue at 0.4 to 5.5 MBq, iv after 6 hrs by gamma counter; assay type: ADME, organism-based, Neoplasm; conditions: in vivo
Intestine [16] = experiment: Biodistribution in intestine of mouse B16F0 cells implanted C57BL/6J mouse assessed per gram of tissue at 0.4 to 5.5 MBq, iv after 0.25 hrs by gamma counter; assay type: ADME, organism-based; conditions: in vivo
Bone [17] = experiment: Biodistribution in bone of mouse B16F0 cells implanted C57BL/6J mouse assessed per gram of tissue at 0.4 to 5.5 MBq, iv after 6 hrs by gamma counter; assay type: ADME, organism-based, Bone element; conditions: in vivo
Intestine [18] = experiment: Biodistribution in intestine of mouse B16F0 cells implanted C57BL/6J mouse assessed per gram of tissue at 0.4 to 5.5 MBq, iv after 3 hrs by gamma counter; assay type: ADME, organism-based; conditions: in vivo
[19] = Lipophilicity, log P at pH 7.5; assay type: physicochemical; conditions: buffer
Spleen [20] = experiment: Biodistribution in spleen of mouse B16F0 cells implanted C57BL/6J mouse assessed per gram of tissue at 0.4 to 5.5 MBq, iv after 6 hrs by gamma counter; assay type: ADME, organism-based; conditions: in vivo
Lung [21] = experiment: Biodistribution in lung of mouse B16F0 cells implanted C57BL/6J mouse assessed per gram of tissue at 0.4 to 5.5 MBq, iv after 1 hr by gamma counter; assay type: ADME, organism-based; conditions: in vivo
Spleen [22] = experiment: Biodistribution in spleen of mouse B16F0 cells implanted C57BL/6J mouse assessed per gram of tissue at 0.4 to 5.5 MBq, iv after 0.25 hrs by gamma counter; assay type: ADME, organism-based; conditions: in vivo
Lung [23] = experiment: Biodistribution in lung of mouse B16F0 cells implanted C57BL/6J mouse assessed per gram of tissue at 0.4 to 5.5 MBq, iv after 0.25 hrs by gamma counter; assay type: ADME, organism-based; conditions: in vivo
Spleen [24] = experiment: Biodistribution in spleen of mouse B16F0 cells implanted C57BL/6J mouse assessed per gram of tissue at 0.4 to 5.5 MBq, iv after 1 hr by gamma counter; assay type: ADME, organism-based; conditions: in vivo
Bone [25] = experiment: Biodistribution in bone of mouse B16F0 cells implanted C57BL/6J mouse assessed per gram of tissue at 0.4 to 5.5 MBq, iv after 0.25 hrs by gamma counter; assay type: ADME, organism-based, Bone element; conditions: in vivo
[26] = Biodistribution in eye of mouse B16F0 cells implanted C57BL/6J mouse assessed per gram of tissue at 0.4 to 5.5 MBq, iv after 6 hrs by gamma counter; assay type: ADME, organism-based; conditions: in vivo
[27] = Biodistribution in tumor of mouse B16F0 cells implanted C57BL/6J mouse assessed per gram of tissue at 0.4 to 5.5 MBq, iv after 0.25 hrs by gamma counter; assay type: ADME, organism-based, Neoplasm; conditions: in vivo
Spleen [28] = experiment: Biodistribution in spleen of mouse B16F0 cells implanted C57BL/6J mouse assessed per gram of tissue at 0.4 to 5.5 MBq, iv after 3 hrs by gamma counter; assay type: ADME, organism-based; conditions: in vivo
Stomach [29] = experiment: Biodistribution in stomach of mouse B16F0 cells implanted C57BL/6J mouse assessed per gram of tissue at 0.4 to 5.5 MBq, iv after 0.25 hrs by gamma counter; assay type: ADME, organism-based; conditions: in vivo
Lung [30] = experiment: Biodistribution in lung of mouse B16F0 cells implanted C57BL/6J mouse assessed per gram of tissue at 0.4 to 5.5 MBq, iv after 3 hrs by gamma counter; assay type: ADME, organism-based; conditions: in vivo
Thyroid gland [31] = experiment: Biodistribution in thyroid of mouse B16F0 cells implanted C57BL/6J mouse assessed per gram of tissue at 0.4 to 5.5 MBq, iv after 6 hrs by gamma counter; assay type: ADME, organism-based; conditions: in vivo
Intestine [32] = experiment: Biodistribution in intestine of mouse B16F0 cells implanted C57BL/6J mouse assessed per gram of tissue at 0.4 to 5.5 MBq, iv after 6 hrs by gamma counter; assay type: ADME, organism-based; conditions: in vivo
Thyroid gland [33] = experiment: Biodistribution in thyroid of mouse B16F0 cells implanted C57BL/6J mouse assessed per gram of tissue at 0.4 to 5.5 MBq, iv after 1 hr by gamma counter; assay type: ADME, organism-based; conditions: in vivo

Drug uptake [1]: 17.3% | Drug uptake [2]: 23.7% | Drug uptake (Bone [3]): 0.77% | Drug uptake [4]: 12.2% | Drug uptake [5]: 18.8% | Drug uptake (Stomach [6]): 5.3% | Drug uptake [7]: 8.8% | Drug uptake (Lung [8]): 0.14% | Drug uptake (Bone [9]): 1.5% | Drug uptake (Intestine [10]): 2.9% | Drug uptake (Thyroid gland [11]): 1.5% | Drug uptake (Thyroid gland [12]): 4.8% | Drug uptake (Stomach [13]): 0.3% | Drug uptake (Stomach [14]): 0.82% | Drug uptake [15]: 7.2% | Drug uptake (Intestine [16]): 7% | Drug uptake (Bone [17]): 0.43% | Drug uptake (Intestine [18]): 0.72% | logD [19]: 1.22 | Drug uptake (Spleen [20]): 1.3% | Drug uptake (Lung [21]): 1.8% | Drug uptake (Spleen [22]): 10.3% | Drug uptake (Lung [23]): 5.7% | Drug uptake (Spleen [24]): 3.2% | Drug uptake (Bone [25]): 4% | Drug uptake [26]: 16.5% | Drug uptake [27]: 7% | Drug uptake (Spleen [28]): 2.3% | Drug uptake (Stomach [29]): 13.2% | Drug uptake (Lung [30]): 0.37% | Drug uptake (Thyroid gland [31]): 1% | Drug uptake (Intestine [32]): 0.23% | Drug uptake (Thyroid gland [33]): 2.2%
Compound: CCN(CC)CCNC(=O)c1ccnc([18F])c1
